{
  "source": "paper PMC10708028",
  "about": "“Target Screen of Anti-Hyperuricemia Compounds from Cortex Fraxini In Vivo Based on ABCG2 and Bioaffinity Ultrafiltration Mass Spectrometry” (Molecules, 2023)",
  "target": "T1, ABCG2 (Homo sapiens, UniProt Q9UNQ0)",
  "T1 construct": "Recombinant ABCG2",
  "T1 sequence (Q9UNQ0 1-655)": "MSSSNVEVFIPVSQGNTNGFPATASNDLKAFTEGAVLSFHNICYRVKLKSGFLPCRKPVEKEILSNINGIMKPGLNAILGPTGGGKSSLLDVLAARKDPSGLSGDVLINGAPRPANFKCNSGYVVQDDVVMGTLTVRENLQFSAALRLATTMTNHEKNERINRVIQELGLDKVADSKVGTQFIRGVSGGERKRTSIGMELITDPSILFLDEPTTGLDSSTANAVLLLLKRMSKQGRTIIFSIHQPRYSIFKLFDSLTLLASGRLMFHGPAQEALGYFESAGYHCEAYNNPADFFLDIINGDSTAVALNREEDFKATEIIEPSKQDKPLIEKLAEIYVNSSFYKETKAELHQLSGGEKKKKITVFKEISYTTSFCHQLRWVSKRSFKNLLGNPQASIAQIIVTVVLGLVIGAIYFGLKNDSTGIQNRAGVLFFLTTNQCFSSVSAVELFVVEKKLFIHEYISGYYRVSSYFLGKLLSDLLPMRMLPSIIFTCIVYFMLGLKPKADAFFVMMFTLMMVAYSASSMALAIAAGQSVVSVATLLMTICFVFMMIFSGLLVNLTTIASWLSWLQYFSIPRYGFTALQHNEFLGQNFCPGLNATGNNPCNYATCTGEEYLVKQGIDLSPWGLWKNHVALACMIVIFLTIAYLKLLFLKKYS",
  "type": "binding",
  "data": [
    {"smiles": "COc1cc2ccc(=O)oc2c(O[C@@H]2O[C@H](CO)[C@@H](O)[C@H](O)[C@H]2O)c1O", "note": "[fraxin]", "values": [
      {"measurement": "Kd", "result": 141, "unit": "µM"}
    ]}
  ]
}
